Experimental data published in patent US9820972B2, “Antiviral compounds highly effective as HCV-NS5A inhibitor” (priority 2013, dated 2017).

System: GT-1a of NS5A Replicon
Assay: HCV double reporter gene (Renilla luciferase) replicon assay, GT-1a
Type: cell-based, Hepatitis C virus (HCV)
Details: GT-1a replicon; class symbols; read-out: EC50 For GT-1a of NS5A Replicon
Description: Antiviral Assay for Inhibition Activity (EC50):
The study is completed by a new constructed double reporter genes replicon assay system, the capacity of viral replicon in infected cell is determined by detecting the reporter gene Renilla luciferase. The relationship of reporter genes, HCV RNA replicon and viral proteins is well linear. 8 gradient concentrations for 2-fold dilution, 3 wells, 3 times repetition and 1 or 2 control drugs are set to finally determine EC50 of compound.
THF was distilled from sodium metal and benzophenone. DCM, pentane and hexane were distilled form calcium hydride. Special raw material and intermediate in the invention were ordered by contract synthesis from Zannan SciTech Co., Let in China, others reagents were purchased from Shanghai reagent company, Aldrich, Acros etc. As intermediates or products during the synthesis is not required for the reaction and other tests the next step, the synthesis is repeated until a sufficient number of times. The invention of the prepared compounds of […] (HCV NS5A) inhibitory activity test was performed by CRO service units such as WuXi AppTec etc.

In the case of `CNC(=O)NC(C(=O)N1CC=C[C@H]1c1nc(-c2ccc(-c3ccc(-c4c[nH]c(C5CCCN5C(=O)[C@@H](NC(=O)NC)C(C)C)n4)cc3)cc2)c[nH]1)C(C)C` (stereo partly drawn) [Compound 6ch], the EC50 is reported as 0.001 to 0.999 nM.

Same assay, conditions: Hepatitis C virus, GT1A, GT-1a replicon; class symbols; read-out: EC50 For GT-1a of NS5A Replicon

`COC(=O)N[C@H](C(=O)N1C[C@@H](OC(=O)N2Cc3cc4c(cc3C2)OCO4)CC1c1nc(-c2ccc(-c3ccc(-c4c[nH]c([C@@H]5CCCCN5C(=O)[C@@H](NC(=O)OC)C(C)C)n4)cc3)cc2)c[nH]1)C(C)C` (stereo partly drawn) [Compound 6ac] and `COC(=O)N[C@H](C(=O)N1C[C@H](OC(=O)N2Cc3cc4c(cc3C2)OCO4)CC1c1ncc(-c2ccc(-c3ccc(-c4c[nH]c([C@@H]5CCCN5C(=O)[C@@H](NC(=O)OC)C(C)C)n4)cc3)cc2)[nH]1)C(C)C` (stereo partly drawn) [Compound 6i] fall in the same range of EC50: 0.001 to 0.999 nM for the first, 0.001 to 0.999 nM for the second.

`COC(=O)N[C@H](C(=O)N1CC(OC(=O)N2Cc3cc4c(cc3C2)OCO4)CC1c1nc(-c2ccc3c(c2)Cc2cc(-c4c[nH]c([C@@H]5CCCN5C(=O)[C@@H](NC(=O)OC)C(C)C)n4)ccc2-3)c[nH]1)C(C)C` (stereo partly drawn) [Compound 6az] and `COC(=O)N[C@H](C(=O)N1CC(OC(=O)N2Cc3cc4c(cc3C2)OCO4)CC1c1nc(-c2ccc3c(c2)oc2cc(-c4c[nH]c([C@@H]5CCCN5C(=O)[C@@H](NC(=O)OC)C(C)C)n4)ccc23)c[nH]1)C(C)C` (stereo partly drawn) [Compound 6bn] fall in the same range of EC50: 0.001 to 0.999 nM for the first, 0.001 to 0.999 nM for the second.

`COC(=O)N[C@H](C(=O)N1CC(OC(=O)N2Cc3cc4c(cc3C2)OCO4)CC1c1nc2cc(-c3ccc4c(c3)C(F)(F)c3cc(-c5c[nH]c([C@@H]6CCCN6C(=O)[C@@H](NC(=O)OC)C(C)C)n5)ccc3-4)ccc2[nH]1)C(C)C` (stereo partly drawn) [Compound 6br] and `COC(=O)N[C@H](C(=O)N1CC(OC(=O)N2Cc3cc4c(cc3C2)OCO4)CC1c1nc(-c2ccc(-c3cccc4c(-c5c[nH]c([C@@H]6CCCN6C(=O)[C@@H](NC(=O)OC)C(C)C)n5)cccc34)cc2)c[nH]1)C(C)C` (stereo partly drawn) [Compound 6bu] fall in the same range of EC50: 0.001 to 0.999 nM for the first, 0.001 to 0.999 nM for the second.

`CNC(=O)NC(C(=O)N1CC=C[C@H]1c1nc(-c2ccc(-c3ccc(-c4c[nH]c(C5CCCN5C(=O)[C@@H](NC(=O)OC)C(C)C)n4)cc3)cc2)c[nH]1)C(C)C` (stereo partly drawn) [Compound 6cj] and `COC(=O)N[C@H](C(=O)N1CCCC1c1nc(-c2ccc(-c3ccc(-c4c[nH]c([C@@H]5C=CCN5C(=O)C(NC(=O)N(C)C)C(C)C)n4)cc3)cc2)c[nH]1)C(C)C` (stereo partly drawn) [Compound 6ci] fall in the same range of EC50: 0.001 to 0.999 nM for the first, 0.001 to 0.999 nM for the second.

`COC(=O)N[C@H](C(=O)N1CCCC1c1nc(-c2ccc(-c3ccc(-c4c[nH]c([C@@H]5CCCN5C(=O)C5(NC(=O)OC)CCCC5)n4)cc3)cc2)c[nH]1)C(C)C` (stereo partly drawn) [Compound 6z] and `COC(=O)N[C@H](C(=O)N1CCCC1c1nc(-c2ccc(-c3ccc(-c4c[nH]c([C@@H]5CCCN5C(=O)C5(NC(=O)OC)CC5)n4)cc3)cc2)c[nH]1)C(C)C` (stereo partly drawn) [Compound 6y] fall in the same range of EC50: 0.001 to 0.999 nM for the first, 0.001 to 0.999 nM for the second.

`COC(=O)N[C@H](C(=O)N1CC=CC1c1nc(-c2ccc(-c3ccc(-c4c[nH]c([C@@H]5COCCN5C(=O)[C@@H](NC(=O)OC)C(C)C)n4)cc3)cc2)c[nH]1)C(C)C` (stereo partly drawn) [Compound 6bm] and `COC(=O)N[C@H](C(=O)N1CCCCC1c1nc(-c2ccc(-c3ccc(-c4c[nH]c([C@@H]5COCCN5C(=O)[C@@H](NC(=O)OC)C(C)C)n4)cc3)cc2)c[nH]1)C(C)C` (stereo partly drawn) [Compound 6aj] fall in the same range of EC50: 0.001 to 0.999 nM for the first, 0.001 to 0.999 nM for the second.

`COC(=O)N[C@H](C(=O)N1CC2(C[C@H]1c1ncc(-c3ccc(-c4ccc(-c5c[nH]c([C@@H]6C=CCN6C(=O)[C@H](NC(=O)OC)c6ccccc6)n5)cc4)cc3)[nH]1)OCCO2)C(C)C` [Compound 6dw] and `COC(=O)N[C@H](C(=O)N1CC=C[C@H]1c1nc(-c2ccc(-c3ccc(-c4cnc([C@@H]5CC6(CN5C(=O)[C@H](NC(=O)OC)c5ccccc5)OCCO6)[nH]4)cc3)cc2)c[nH]1)C(C)C` [Compound 6du] fall in the same range of EC50: 0.001 to 0.999 nM for the first, 0.001 to 0.999 nM for the second.

`COC(=O)N[C@H](C(=O)N1CC=CC1c1ncc(-c2ccc(-c3csc4c(-c5c[nH]c([C@@H]6CCCN6C(=O)[C@@H](NC(=O)OC)C(C)C)n5)csc34)cc2)[nH]1)C(C)C` (stereo partly drawn) [Compound 6fq] and `COC(=O)N[C@H](C(=O)N1CC=C[C@H]1c1ncc(-c2cc3sc(-c4ccc(-c5cnc([C@@H]6CCCN6C(=O)[C@@H](NC(=O)OC)C(C)C)[nH]5)cc4)cc3s2)[nH]1)C(C)C` [Compound 6fn] fall in the same range of EC50: 0.001 to 0.999 nM for the first, 0.001 to 0.999 nM for the second.

`COC(=O)N[C@H](C(=O)N1CN(C(=O)N2Cc3ccc(F)cc3C2)CC1c1nc(-c2ccc(-c3ccc(-c4c[nH]c([C@@H]5CCCN5C(=O)[C@@H](NC(=O)OC)C(C)C)n4)cc3)cc2)c[nH]1)C(C)C` (stereo partly drawn) [Compound 6as] and `COC(=O)N[C@H](C(=O)N1CN(C(=O)N2Cc3ccc4c(c3C2)OCO4)CC1c1nc(-c2ccc(-c3ccc(-c4c[nH]c([C@@H]5CC6(CC6)CN5C(=O)[C@@H](NC(=O)OC)C(C)C)n4)cc3)cc2)c[nH]1)C(C)C` (stereo partly drawn) [Compound 6ap] fall in the same range of EC50: 0.001 to 0.999 nM for the first, 0.001 to 0.999 nM for the second.

`COC(=O)N[C@@H](C(=O)N1CC=C[C@H]1c1ncc(-c2ccc(-c3cc4sc(-c5cnc([C@@H]6CCCN6C(=O)[C@H](NC(=O)OC)c6ccccc6)[nH]5)cc4[nH]3)cc2)[nH]1)c1ccccc1` [Compound 6fx] and `COC(=O)N[C@@H](C(=O)N1CC=CC1c1ncc(-c2ccc(-c3csc4c(-c5c[nH]c([C@@H]6CCCN6C(=O)[C@H](NC(=O)OC)c6ccccc6)n5)csc34)cc2)[nH]1)c1ccccc1` (stereo partly drawn) [Compound 6fs] fall in the same range of EC50: 0.001 to 0.999 nM for the first, 0.001 to 0.999 nM for the second.

`COC(=O)N[C@H](C(=O)N1CCC[C@H]1c1nc(-c2ccc(-c3ccc(-c4cnc([C@@H]5C[C@@H](OC(=O)N6Cc7cccc(F)c7C6)CN5C(=O)[C@@H](NC(=O)OC)C(C)C)[nH]4)cc3)cc2)c[nH]1)C(C)C` [Compound 6s] and `COC(=O)N[C@H](C(=O)N1C[C@H](OC(=O)N2Cc3ccc4c(c3C2)OCO4)CC1c1ncc(-c2ccc(-c3ccc(-c4c[nH]c([C@@H]5CCCN5C(=O)[C@@H](NC(=O)OC)C(C)C)n4)cc3)cc2)[nH]1)C(C)C` (stereo partly drawn) [Compound 6a] fall in the same range of EC50: 0.001 to 0.999 nM for the first, 0.001 to 0.999 nM for the second.

`COC(=O)N[C@H](C(=O)N1CC=CC1c1nc(-c2ccc(-c3ccc(-c4c[nH]c([C@@H]5CCCN5C(=O)C5(NC(=O)OC)CCCC5)n4)cc3)cc2)c[nH]1)C(C)C` (stereo partly drawn) [Compound 6bi] and `CC(C)C(NC(=O)N(C)C)C(=O)N1CC=C[C@H]1c1nc(-c2ccc(-c3ccc(-c4c[nH]c(C5CCCN5C(=O)[C@@H](NC(=O)N(C)C)C(C)C)n4)cc3)cc2)c[nH]1` (stereo partly drawn) [Compound 6cg] fall in the same range of EC50: 0.001 to 0.999 nM for the first, 0.001 to 0.999 nM for the second.

`COC(=O)N[C@@H](C(=O)N1CC=CC1c1nc(-c2ccc(-c3cc4sc(-c5c[nH]c(C6C=CCN6C(=O)[C@H](NC(=O)OC)c6ccccc6)n5)cc4s3)cc2)c[nH]1)c1ccccc1` (stereo partly drawn) [Compound 6fe] and `COC(=O)N[C@@H](C(=O)N1CC=CC1c1nc(-c2ccc(-c3ccc(-c4c[nH]c(C5C=CCN5C(=O)[C@H](NC(=O)OC)c5ccccc5)n4)cc3)cc2)c[nH]1)c1ccccc1` (stereo partly drawn) [Compound 6ca] fall in the same range of EC50: 0.001 to 0.999 nM for the first, 0.001 to 0.999 nM for the second.

First: COC(=O)N[C@H](C(=O)N1CCC[C@H]1c1nc(-c2ccc(-c3ccc(-c4cnc([C@@H]5C[C@@H](OC(=O)N6Cc7ccc8c(c7C6)OCO8)CN5C(=O)[C@@H](NC(=O)OC(C)(C)C)C(C)C)[nH]4)cc3)cc2)c[nH]1)C(C)C [Compound 6d]
Second: CC(C)[C@H](NC(=O)OC1CCCC1)C(=O)N1CCC[C@H]1c1nc(-c2ccc(-c3ccc(-c4cnc([C@@H]5C[C@@H](OC(=O)N6Cc7cc8c(cc7C6)OCO8)CN5C(=O)[C@@H](NC(=O)OC5CCCC5)C(C)C)[nH]4)cc3)cc2)c[nH]1 [Compound 6r]
The EC50 of the first is lower: 1 to 49.9 nM for the first, over 50 nM for the second.

First: COC(=O)N[C@H](C(=O)N1CN(C(=O)N2Cc3cc4c(cc3C2)OCO4)C[C@H]1c1ncc(-c2ccc(-c3cccc4c(-c5cnc([C@@H]6CCCN6C(=O)[C@@H](NC(=O)OC)C(C)C)[nH]5)cccc34)cc2)[nH]1)C(C)C [Compound 6bv]
Second: COC(=O)NC(C(=O)N1CCC[C@H]1c1nc(-c2cc3sc(-c4ccc(-c5c[nH]c(C6CN(C(=O)N7Cc8cc9c(cc8C7)OCO9)CN6C(=O)[C@@H](NC(=O)OC)C(C)C)n5)cc4)cc3s2)c[nH]1)c1ccccc1 (stereo partly drawn) [Compound 6fb]
The EC50 of the first is higher: over 50 nM for the first, 0.001 to 0.999 nM for the second.

`CN(C)C(=O)N[C@@H](C(=O)N1CC=CC1c1nc(-c2ccc(-c3ccc(-c4c[nH]c(C5CCCN5C(=O)[C@H](NC(=O)N(C)C)c5ccccc5)n4)cc3)cc2)c[nH]1)c1ccccc1` (stereo partly drawn) [Compound 6ce] and `COC(=O)N[C@H](C(=O)N1CCC[C@H]1c1ncc(-c2cc3sc(-c4ccc(-c5cnc([C@@H]6C=CCN6C(=O)[C@H](NC(=O)OC)c6ccccc6)[nH]5)cc4)cc3s2)[nH]1)C(C)C` [Compound 6fj] fall in the same range of EC50: 0.001 to 0.999 nM for the first, 0.001 to 0.999 nM for the second.

Same assay, conditions: Hepatitis C virus, GT1A, read-out: EC50 For GT-1a of NS5A Replicon

`COC(=O)N[C@H](C(=O)N1C[C@H](OC(=O)N2Cc3ccc4c(c3C2)OCO4)C[C@H]1c1nc(-c2ccc(-c3ccc(-c4cnc([C@@H]5C[C@@H](OC(=O)N6Cc7ccc8c(c7C6)OCO8)CN5C(=O)[C@@H](NC(=O)OC)C(C)C)[nH]4)cc3)cc2)c[nH]1)C(C)C` [Compound 6e] and `CC(C)[C@H](NC(=O)OC(C)(C)C)C(=O)N1C[C@H](OC(=O)N2Cc3ccc4c(c3C2)OCO4)CC1c1ncc(-c2ccc(-c3ccc(-c4c[nH]c([C@@H]5C[C@@H](OC(=O)N6Cc7ccc8c(c7C6)OCO8)CN5C(=O)[C@@H](NC(=O)OC(C)(C)C)C(C)C)n4)cc3)cc2)[nH]1` (stereo partly drawn) [Compound 6f] cannot be ordered by EC50: over 50 nM for the first, over 50 nM for the second.

`COC(=O)N[C@H](C(=O)N1C[C@H](OC(=O)N2Cc3cc4c(cc3C2)OCO4)C[C@H]1c1nc(-c2ccc(-c3ccc(-c4cnc([C@@H]5C[C@@H](OC(=O)N6Cc7cc8c(cc7C6)OCO8)CN5C(=O)[C@@H](NC(=O)OC)C(C)C)[nH]4)cc3)cc2)c[nH]1)C(C)C` [Compound 6n] showed an EC50 of over 50 nM.
